One assay concerns F9 teratocarcinoma cells. The assay is described as follows: Cell proliferation by cell counting. Type of assay: cell-based, murine. The following applies: 350 μM nevirapine, after 120 h of exposure. The procedure:
NIH/3T3 embryo fibroblasts and F9 teratocarcinoma cells were cultured in DMEM containing 10-20% fetal serum and two concentrations of efavirenz, i.e. 10 and 20 μM, diluted from a stock solution (10 mM) in 100% DMSO. Cells were plated at a density of 2-5×10^4 in 35 mm Petri dishes and exposed to efavirenz 5-6 hours later. Samples were withdrawn at specific times and cells were counted in efavirenz-exposed compared to parallel non-exposed cell cultures.

The test system of another assay is AML #2. Put plainly: Growth, viable cell count. Type of assay: cell-based, human. The following applies: AML #2, Nev 350 μM, 4 days.
Assay [1] concerns Kasumi-1 cells. The assay is described as follows: Differentiation of AML cells poorly sensitive to RA. Format: cell-based, human. The following applies: nevirapine treatment.
The test system of the next assay is teratocarcinoma F9 cells. The assay is described as follows: Differentiation of F9 cells (morphology, collagen type IV immunofluorescence). The following applies: IF after 96 h. Format: cell-based, murine. As to the method:
After 96 h, samples were fixed and processed for IF of collagen type IV (α1) chain (FIG. 5c, FIG. 5g, FIG. 5k) and DAPI staining of nuclei (FIG. 5b, FIG. 5f, FIG. 5j); pictures are merged in FIG. 5d, FIG. 5h and FIG. 5l (100× objective).

Assay [2] deals with human acute myeloid leukemia (AML) cells. Put plainly: NBT dye reduction assay, summary over Table 2. Format: cell-based. The note with it: nevirapine treatment vs control (Table 2).
Another assay relates to Morris 3924A hepatoma. The assay is described as follows: Morris 3924A rat hepatoma in vivo. The procedure: Rat strain: ACI/T inbred (about 180 gr)
Tumor: Morris 3924A hepatoma is a fast-growing tumor which develops in inbred ACI/T animals. Three weeks after inoculation the tumor size is about 10 cm^3.
Preparation of tumor cells: hepatoma tumor cells are prepared from the animal about two weeks after inoculation. The tumor is surgically removed from the animal, separated from connective and necrotic tissues and minced in small pieces. Tumor fragments are then suspended in sterile physiological solution and inoculated in the internal site of one thigh using a 20 ml-syringe with a large size needle. Routinely 0.5 ml of cell suspension are injected. The success rate of tumor implantation is nearly 99%.
On the eleventh day, hepatoma cells were inoculated subcutaneously in pre-treated and in three non-treated control rats.
Procedures and Results: Morris hepatoma cells were inoculated in 4 rats ([…]). The same day, treatment with efavirenz was initiated in two of them by injecting 1 mg/rat/day.

Assay [3] concerns HL60 cells. The assay is described as follows: Morphological differentiation, Wright-Giemsa staining. Type of assay: cell-based, human. The following applies: five days of nevirapine treatment (400 μM).
The next assay concerns primary AML blasts. The assay is described as follows: Differentiation of AML cells poorly sensitive to RA. Type of assay: cell-based, human. The following applies: nevirapine treatment.
In assay [4] the test system is Kasumi-1 cells. The assay is described as follows: Growth, viable cell count. The following applies: Kasumi-1, Nev 350 μM, 4 days. Format: cell-based, human.
Another assay has as its system AML #1. The assay is described as follows: Growth, viable cell count. Format: cell-based, human. The note with it: AML #1, Nev 350 μM, 4 days.
The subject of assay [5] is Saos-2 osteosarcoma cells. The assay is described as follows: Cell proliferation by cell counting. Format: cell-based, human. The following applies: 350 μM nevirapine vs control cultures. The procedure: (§1) Samples were withdrawn at specific times and cells were counted in nevirapine-exposed and control (DMSO-exposed) cultures. […] Saos-2 osteosarcoma cells were the most slowly responsive type, and only after 5 days of exposure did the growth rate begin to decrease compared to control cultures.
The effect of efavirenz was further tested in human HeLa adenocarcinoma and Saos-2 osteosarcoma cells. Both cell lines were cultured in the conditions described above (Example 6). To establish if prolonged exposure to the drug improved the effectiveness of growth inhibition, both cell lines were exposed to efavirenz in two subsequent cycles: during the 1st cycle cells were continuously exposed to 20 μM efavirenz for 5 days; cells were then diluted, reseeded again and the 2nd cycle exposure was initiated the following day with fresh drug. […] The inhibitory effect was time-dependent, since in both HeLa and Saos-2 cultures, the 1st cycle of exposure (5 days) yielded a 1.6- and 1.5-fold reduction, respectively, whereas a 5- and 4-fold reduction was obtained in the 2nd cycle (carried out until day 20 from the onset of exposure).

The test system of assay [6] is HL60 cells. The assay is described as follows: Growth, viable cell count. Type of assay: cell-based, human. The note with it: HL60, Nev 350 μM, 4 days.
In assay [7] the test system is HT-29 colon carcinoma cells. Put plainly: Cell proliferation by cell counting. Type of assay: cell-based, human. The note with it: 350 μM nevirapine.
Excerpt: as §1

The test system of another assay is F9 cells. Put plainly: Semi-quantitative RT-PCR of cell cycle regulatory genes. Format: cell-based, murine. The following applies: nevirapine compared to non-exposed F9 cultures. The source says:
FIG. 7B: Quantitative variations in gene expression. RT-PCR products hybridized with internal oligonucleotides were quantified by densitometry. […] Dark histograms represent the mean value, and light histograms the standard deviation, from at least three experiments for each gene. […] We examined a set of genes encoding D-type cyclins; growth inhibitors; modulators of apoptosis; and housekeeping proteins.

In the case of `Cc1ccnc2c1NC(=O)c1cccnc1N2C1CC1` [nevirapine, 5,11-dihydro-11-cyclopropyl-4-methyl-6H-dipyrido-[3,2-b:2′,3′-e][1,4]diazepin-6-one], the “reduction in the proliferation rate” value in the assay with F9 teratocarcinoma cells came out at 5 fold. In addition, the “Viable cells N^0 × 10^5” value with AML #2 is reported as 1.2 ± 0.1 × 10^5. In addition, the “differentiation (morphological, functional, immunophenotypic)” value in the assay on Kasumi-1 cells [1] is listed as “triggering differentiation”. Also, the “synthesis of collagen type IV(α1) chain” value with teratocarcinoma F9 cells is on record as “increased synthesis”. In addition, the “increase in the number of positive cells in the NBT dye reduction assay” value in [2] is given as 2.0-3.5 fold. In addition, the “tumor at the site of injection” value with Morris 3924A hepatoma (nevirapine 18 mg/rat/day pre-treatment for 11 days, 17 days from inoculation, only one of 3 treated rats, controls 2-4 cm^3) is listed as “small nodule of a few millimeters”. Moreover, the “rats in which onset and growth of hepatoma were antagonized (remained permanently healthy)” value in the assay with Morris 3924A hepatoma (nevirapine 18 mg/rat/day pre-treatment for 11 days, untreated 3/3 develop tumor) is “⅔”. Also, the “histology of tumor tissue” value in the assay with Morris 3924A hepatoma (nevirapine-treated rat vs untreated sample) was “transformed areas are remarkably reduced, and cells present clear apoptotic features”. Also, the morphology entry in the assay with HL60 cells [3] is listed as “myelomonocytic-like morphology was evident”. The “differentiation (morphological, functional, immunophenotypic)” value in the assay with primary AML blasts is given as “triggering differentiation”. The “Viable cells N^0 × 10^5” value in the assay with Kasumi-1 cells [4] is on record as 4.5 ± 0.9 × 10^5. The “Viable cells N^0 × 10^5” value with AML #1 is given as 0.6 ± 0.1 × 10^5. Further, in assay [5], the “exposure after which the growth rate begins to decrease” value was 5 days. Further, the “Viable cells N^0 × 10^5” value in the assay on HL60 cells [6] is recorded as 4.7 ± 1.1 × 10^5. For the same compound, the “effectiveness of proliferation suppression compared with F9” value in assay [7] was “comparable effectiveness”. Also, in the assay on F9 cells, the Bcl-2 expression entry is “Up-regulation”, the “Cyclin D3 expression” value was “down-regulated”, the Rb-2/p130 expression result is listed as “Up-regulation” and the “cyclin D1 gene down-regulation” value amounted to 7 fold. Also, in the assay with F9 cells, the “expression of housekeeping genes (β-actin, GAPDH)” value is on record as “unaffected”; the “p16^INK4a up-regulation” value was about 8 fold; the “p27^Kip1 expression” value was “Up-regulation”; the p53 expression result is “unaffected”.

For the origin of these results see patent US10507207B2, “Non-nucleosidic inhibitors of reverse transcriptase as antagonists of cell proliferation and inducers of cell differentiation” (ISTITUTO SUPERIORE DI SANITA, priority 2001, dated 2019).
